Test results as given in ChEMBL document CHEMBL1158104, “Mooloolabenes A-E, norsesterterpenes from the Australian sponge Hyattella intestinalis” (J Nat Prod, 2006).
≈ marks a conversion by molar mass, not a printed value.

tested on: P388; assay: Cytotoxicity against mouse P388 cells; format: functional, cell-based

Structure (SMILES)	IC50 [mg/L]
CC1(C)CCC[C@]2(C)[C@H]3CC[C@]4(C)[C@@H](C=O)C(C=O)=CC[C@H]4C3=CC[C@@H]12 [MOOLOOLABENE A]	0.8 (≈ 2.26 µM)
CC1(C)CCC[C@]2(C)[C@H]3CC[C@]4(C)[C@H](C=O)C(C=O)=CC[C@H]4C3=CC[C@@H]12 [MOOLOOLABENE B]	1.2 (≈ 3.38 µM)
CC(=O)OC[C@@]1(C)CCC[C@]2(C)[C@H]3CC[C@]4(C)[C@@H](C=O)C(C=O)=CC[C@H]4C3=CC[C@@H]12 [MOOLOOLABENE C]	3 (≈ 7.27 µM)
CC(=O)O[C@@H]1OCC2=CC[C@H]3C4=C[C@@H](OC(C)=O)[C@H]5C(C)(C)CCC[C@]5(C)[C@H]4CC[C@]3(C)[C@H]21 [MOOLOOLABENE D]	3 (≈ 6.57 µM)
CC(=O)O[C@@H]1OCC2=CC[C@H]3C4=CC[C@H]5C(C)(C)CCC[C@]5(C)[C@H]4CC[C@]3(C)[C@H]21 [MOOLOOLABENE E]	3 (≈ 7.53 µM)
CC(=O)O[C@@H]1OC=C2CC[C@@H]3[C@](C)(CC[C@@H]4[C@@]5(C)CCCC(C)(C)[C@@H]5CC[C@@]34C=O)[C@H]21 [MOOLOOLALDEHYDE]	3 (≈ 7 µM)
